Source: patent US5359135A, “Triasulfurone compounds” (priority 1990, dated 1994)

Key:
Format in all cases: binding, mouse (Balb/c)
MAb 4147-19-4 = assay: competitive ELISA, triasulfurone and analogs with MAb 4147-19-4 (Table 1)
Source text: (§1) As defined within the context of this invention, the percentage of cross-reactivity is represented by the following equation: [triasulfurone concentration for 50% inhibition (I50)/concentration of the triasulfurone analogs for 50% inhibition (I50)]×100.
(§2) The I50 value can be determined, for example, by means of a competitive ELISA assay (see Example 8). In that case the I50 value corresponds, for example, to the antigen concentration that leads to a 50% inhibition of the binding of the antibody to the carrier-bound antigen.
(§3) The detection of triasulfurone is effected by means of a two-step competitive ELISA test.
(§4) BSA-conjugated hapten, prepared in accordance with Example 1.3.1 or 1.3.2, in a 50mM sodium carbonate buffer (pH 9.6) (200 ng of BSA-conjugated hapten/100 μl of sodium carbonate buffer) is first of all adsorbed on microtitre plates (for example Dynatech, type M 129A) and incubated overnight at a temperature of 4° C. The plates are then washed five times with PBS buffer enriched with 0.1% (v/v) polysorbate 20 (Tween 20) (PBS Tween).
(§5) The remaining free binding sites of the solid carder material are then blocked by the addition of PBS-BSA in the form of a 1% (w/v) solution. After incubation for two hours at 22° C. the plates are washed again with PBS Tween (0.1%).
(§6) 50 μl of the supernatant of the previously cloned hybridoma cells (in a dilution of 1:2000 or 1:4000) or 50 μl of the previously purified monoclonal antibodies (40-120 ng/ml) are incubated a) with 950 μl of a standard solution containing an increasing amount of triasulfurone or of triasulfurone analogs, b) with triasulfurone-containing water samples or c) with triasulfurone-containing soil extracts. [All dilutions are carried out in PBS Tween (0.1%)].
(§7) After an incubation period of 1 hour at room temperature (22° C.), 200 μl of the antigen/antibody mixture are added to each well in the microtitre plate and the whole batch is incubated for a further one hour. The wells are then washed five times with PBS Tween (0.1%) and charged with 100 μl/well of goat anti-mouse IgG antibody that is conjugated to alkaline phosphatase (dilution 1:1500), and incubated for a period of 1.5 hours.
(§8) After washing again, 150 μl/well of the substrate p-nitrophenyl phosphate dissolved in 1 mg/ml of diethanolamine buffer ([…], pH 9.8, enriched with 0.5 mM MgCl2 ×6H2 O) are added to the wells.
(§9) The intensity of the colour reaction that has occurred is determined at a wavelength of 405 nm. […] All the samples are determined in triplicate.
(§10) In order to determine the amount of triasulfurone present in a sample, first of all a calibration curve is produced (FIG. 1), B/Bo×100 being plotted against the concentration of inhibitor. (Bo represents the absorption capacity measured without the addition of a triasulfurone inhibitor to the antibody, and B is the absorption capacity when triasulfurone inhibitors at various concentrations are added). The I50 value indicates the concentration of the antigen at which the binding of antibody to the solid phase is inhibited by 50%. The I50 value is determined using an ENZFITTER (Leatherbarrow, Elsevier-Biosoft) curve-calculation program based on a four-parameter logistical curve (Raab GM, 1983) and specially adapted to the prevailing conditions. The quantitative determination of triasulfurone in soil or water samples within the context of ELISA is also carried out using the ENZFITTER program, the adaptation of the curve being based on standards that run on any microtitre plate.

MAb 4134-40-1 = assay: competitive ELISA, triasulfurone and analogs with MAb 4134-40-1 (Table 1)
Source text: as §1, §2, §3, §4, §5, §6, §7, §8, §9, §10

MAb 4149-1-1 = assay: competitive ELISA, triasulfurone and analogs with MAb 4149-1-1 (Table 1)
Source text: as §1, §2, §3, §4, §5, §6, §7, §8, §9, §10

[1] = (triasulfurone conc. for 50% inhibition/analog conc. for 50% inhibition) × 100

Structure (SMILES): COC(=O)c1ccccc1S(=O)(=O)NC(=O)Nc1nc(OC(F)F)cc(OC(F)F)n1 [I, primisulfurone]
- I50 (inhibitor concentration that reduces the ELISA signal by 50% in comparison to the control) (MAb 4147-19-4): > 1000 ng/mL
- Cross-reactivity (MAb 4147-19-4; [1]): < 0.01%
- I50 (inhibitor concentration that reduces the ELISA signal by 50% in comparison to the control) (MAb 4134-40-1): > 1000 ng/mL
- Cross-reactivity (MAb 4134-40-1; [1]): < 0.7%
- I50 (inhibitor concentration that reduces the ELISA signal by 50% in comparison to the control) (MAb 4149-1-1): > 1000 ng/mL
- Cross-reactivity (MAb 4149-1-1; [1]): < 0.01%
